The source made the active and inactive calls. The rule behind the calls is not given here.
What was measured:
Candida albicans [1] = experiment: Induction of membrane permeabilization in azole-susceptible Candida albicans MYA2876 at 1/4 times MIC incubated for 5 mins by phase contrast microscopic method; format: functional, organism-based
HeLa = experiment: Cytotoxicity against human HeLa cells assessed as reduction in cell viability incubated for 24 hrs by MTT assay; format: cell-based
Cryptococcus neoformans [2] = experiment: Antifungal activity against Cryptococcus neoformans VR-54 incubated for 24 to 36 hrs by two fold dilution method; format: functional
Escherichia coli [3] = experiment: Induction of membrane permeabilization in Escherichia coli ATCC 25922 at MIC incubated for 60 mins by phase contrast microscopic method; format: functional, organism-based
Staphylococcus aureus [4] = experiment: Induction of membrane permeabilization in Staphylococcus aureus at 1/2 times MIC incubated for 60 mins by phase contrast microscopic method; format: functional, organism-based
Fusarium graminearum = experiment: Antifungal activity against Fusarium graminearum B4-5A incubated for 24 to 36 hrs by two fold dilution method; format: functional
Staphylococcus aureus [5] = experiment: Antibacterial activity against methicillin-resistant Staphylococcus aureus ATCC 43300 incubated for 18 hrs by two fold dilution method; format: functional; settings: ATCC 43300, 18 h
Candida albicans [6] = experiment: Antifungal activity against azole-susceptible Candida albicans MYA2876 incubated for 24 to 36 hrs by two fold dilution method; format: functional
Escherichia coli [7] = experiment: Induction of membrane permeabilization in Escherichia coli ATCC 25922 at MIC incubated for 5 mins by phase contrast microscopic method; format: functional, organism-based
Candida albicans [8] = experiment: Antifungal activity against azole-resistant Candida albicans 64124 incubated for 24 to 36 hrs by two fold dilution method; format: functional
Cryptococcus neoformans [9] = experiment: Antifungal activity against Cryptococcus neoformans H99 incubated for 24 to 36 hrs by two fold dilution method; format: functional
Staphylococcus aureus [10] = experiment: Antibacterial activity against methicillin-resistant Staphylococcus aureus ATCC 33591 incubated for 18 hrs by two fold dilution method; format: functional; settings: ATCC 33591, 18 h
Staphylococcus aureus [11] = experiment: Antibacterial activity against Staphylococcus aureus ATCC 25923 incubated for 18 hrs by two fold dilution method; format: functional; settings: ATCC 25923, 18 h
Rhodotorula mucilaginosa = experiment: Antifungal activity against Rhodotorula pilimanae ATCC 26423 incubated for 24 to 36 hrs by two fold dilution method; format: functional
Escherichia coli [12] = experiment: Antibacterial activity against Escherichia coli ATCC 25922 incubated for 18 hrs by two fold dilution method; format: functional; settings: ATCC 25922, 18 h
Staphylococcus aureus [13] = experiment: Induction of membrane permeabilization in Staphylococcus aureus at 1/2 times MIC incubated for 5 mins by phase contrast microscopic method; format: functional, organism-based
Candida albicans [14] = experiment: Induction of membrane permeabilization in azole-resistant Candida albicans 64124 at 1/4 times MIC incubated for 5 mins by phase contrast microscopic method; format: functional, organism-based

## Cl.Cl.Cl.Cl.NC[C@H]1O[C@H](O[C@H]2[C@H](O)[C@@H](O[C@H]3O[C@H](CNC(=O)c4ccccc4-c4c5ccc(=O)cc-5oc5cc(O)ccc45)[C@@H](O)[C@H](N)[C@H]3O)[C@H](N)C[C@@H]2N)[C@H](O)[C@@H](O)[C@@H]1O
Candida albicans [1]
  Activity: Active
HeLa
  IC50: > 100 µg/mL
Cryptococcus neoformans [2]
  MIC: 64 µg/mL
Escherichia coli [3]
  Activity: Active
Staphylococcus aureus [4]
  Activity: Active
Fusarium graminearum
  MIC: 32 µg/mL
Staphylococcus aureus [5]
  MIC: > 256 µg/mL
Candida albicans [6]
  MIC: 256 µg/mL
Escherichia coli [7]
  Activity: inactive
Candida albicans [8]
  MIC: 128 µg/mL
Cryptococcus neoformans [9]
  MIC: 64 µg/mL
Staphylococcus aureus [10]
  MIC: > 256 µg/mL
Staphylococcus aureus [11]
  MIC: 64 µg/mL
Rhodotorula mucilaginosa
  MIC: 32 µg/mL
Escherichia coli [12]
  MIC: 32 µg/mL
Staphylococcus aureus [13]
  Activity: inactive
Candida albicans [14]
  Activity: Active
